EP4098265A1 (priority 2020, dated 2021)
≈ marks a conversion by molar mass, not a printed value. Where two headings read alike, the source gives them in different places.

Experiments:
[1] = system: HCoV-OC43; experiment: Anti-HCoV-OC43 activity in MRC-5 cells (CPE method); type: cell-based; settings: for IC50: Betacoronavirus 1, OC43, MRC5, 0 h
[2] = system: MRC-5 cells; settings: human
[3] = system: HCT-8 cells; settings: human
[4] = system: HCoV-OC43; experiment: Anti-HCoV-OC43 activity in HCT-8 cells (CPE method); type: cell-based
[5] = system: HCoV-229E; experiment: Anti-HCoV-229E activity in Huh7.5 cells (CPE method); type: cell-based; settings: Human coronavirus 229E
[6] = system: Middle East Respiratory Syndrome Coronavirus (MERS-CoV); type: cell-based; settings: in vitro
[7] = system: 2019-nCoV; experiment: Anti-2019-nCoV activity in Vero E6 cells (CPE); settings: in words
[8] = system: human coronavirus HKU1; type: cell-based
[9] = system: PI3K/Akt/mTOR pathway; type: cell-based
[10] = system: coronaviruses (HCoV-229E and HCoV-OC43); experiment: CPE experiment on coronaviruses, single components compared with carrimycin; type: cell-based; settings: above CPE method
[11] = system: severe acute respiratory syndrome coronavirus SARS-CoV; type: cell-based; settings: in vitro
[12] = system: human coronavirus NL63(HCoV-NL63); type: cell-based
[13] = 0h: administration at the same time of infection, read-out: IC50, First batch
[14] = 0h: administration at the same time of infection, read-out: IC50, Second batch
[15] = 2h: administration 2 hours after infection, read-out: IC50, First batch
[16] = 2h: administration 2 hours after infection, read-out: IC50, Second batch

| Compound | IC50 [1] [µg/mL] | inhibitory effect on the HCoV-OC43 ([1]; MRC-5 cells, 0h administration, in words) | TC50 [2] [µg/mL] | TC50 [3] [µg/mL] | IC50 ([4]; Betacoronavirus 1, OC43, HCT-8 cells, 0h administration, read-out: IC50) [µg/mL] | inhibitory effect on the HCoV-OC43 ([4]; HCT-8 cells, 0h administration, in words) | IC50 [5, 13] [µg/mL] | IC50 [5, 14] [µg/mL] | IC50 [5, 15] [µg/mL] | IC50 [5, 16] [µg/mL] | inhibition activity compared with ribavirin or azithromycin [6] | anti-2109-nCoV activity in vitro [7] | inhibition activity compared with ribavirin or azithromycin [8] | anti-inflammatory and immunomodulatory effects on PI3K/Akt/mTOR pathway [9] | inhibition activity compared with carrimycin [10] | inhibition activity compared with ribavirin or azithromycin [11] | inhibition activity compared with ribavirin or azithromycin [12] | IC50 ([4]; Betacoronavirus 1, OC43, HCT-8, 0 h) [µg/mL] | IC50 ([5]; 0h: administration at the same time of infection, read-out: IC50, Mean value) [µg/mL] |
| --- | --- | --- | --- | --- | --- | --- | --- | --- | --- | --- | --- | --- | --- | --- | --- | --- | --- | --- | --- |
| CC[C@H]1OC(=O)[C@H](C)[C@@H](O[C@H]2C[C@@](C)(OC)[C@@H](O)[C@H](C)O2)[C@H](C)[C@@H](O[C@@H]2O[C@H](C)C[C@H](N(C)C)[C@H]2O)[C@](C)(O)C[C@@H](C)CN(C)[C@H](C)[C@@H](O)[C@]1(C)O [Azithromycin] | > 11.1 | no inhibitory effect | 48.07 (≈ 64.2 µM) | >100 | > 100 | no inhibitory effect | 14.3 (≈ 19.1 µM) | 19.2 (≈ 25.7 µM) | 14.3 (≈ 19.1 µM) | 4.77 (≈ 6.37 µM) |  |  |  |  |  |  |  |  |  |
| CO[C@@H]1[C@@H](O[C@@H]2O[C@H](C)[C@@H](O[C@H]3C[C@@](C)(O)[C@@H](OC(=O)CC(C)C)[C@H](C)O3)[C@H](N(C)C)[C@H]2O)[C@@H](CC=O)C[C@@H](C)[C@@H](O[C@H]2CC[C@H](N(C)C)[C@@H](C)O2)/C=C/C=C/C[C@@H](C)OC(=O)C[C@H]1O [Isovalerylspiramycin I, isovalerylspiramycin I] |  |  |  |  |  |  |  |  |  |  | higher than the inhibition activity of ribavirin or azithromycin | anti-2109-nCoV activities in vitro | higher than the inhibition activity of ribavirin or azithromycin | inhibit the PI3K/Akt/mTOR pathway | higher than the inhibition activity of carrimycin | higher than the inhibition activity of ribavirin or azithromycin | higher than the inhibition activity of ribavirin or azithromycin |  |  |
| NC(=O)c1ncn([C@@H]2O[C@H](CO)[C@@H](O)[C@H]2O)n1 [RBV, Ribavirin] | 63.8 (≈ 261 µM) |  | >100 | >100 |  |  | 6.42 (≈ 26.3 µM) | 7.7 (≈ 31.5 µM) | 7.7 (≈ 31.5 µM) | 4.77 (≈ 19.5 µM) |  |  |  |  |  |  |  | 11.1 (≈ 45.5 µM) | 7.06 ± 0.91 (≈ 28.9 µM) |
| CCC(=O)O[C@@H]1CC(=O)O[C@H](C)C/C=C/C=C/[C@H](O[C@H]2CC[C@H](N(C)C)[C@@H](C)O2)[C@H](C)C[C@H](CC=O)[C@H](O[C@@H]2O[C@H](C)[C@@H](O[C@H]3C[C@@](C)(O)[C@@H](OC(=O)CC(C)C)[C@H](C)O3)[C@H](N(C)C)[C@H]2O)[C@H]1OC [isovalerylspiramycin III] |  |  |  |  |  |  |  |  |  |  | higher than the inhibition activity of ribavirin or azithromycin | anti-2109-nCoV activities in vitro | higher than the inhibition activity of ribavirin or azithromycin | inhibit the PI3K/Akt/mTOR pathway | close to the inhibition activities of carrimycin | higher than the inhibition activity of ribavirin or azithromycin | higher than the inhibition activity of ribavirin or azithromycin |  |  |
| isovalerylspiramycin II |  |  |  |  |  |  |  |  |  |  | higher than the inhibition activity of ribavirin or azithromycin | anti-2109-nCoV activities in vitro | higher than the inhibition activity of ribavirin or azithromycin | inhibit the PI3K/Akt/mTOR pathway | close to the inhibition activities of carrimycin | higher than the inhibition activity of ribavirin or azithromycin | higher than the inhibition activity of ribavirin or azithromycin |  |  |
